Among the data in ChEMBL document CHEMBL1909046, “DrugMatrix in vitro pharmacology data” are IC50 and Ki values, retold here.

Broadly, the IC50 is the midpoint of a concentration-inhibition curve. In general, Ki refers to the dissociation constant of the complex between target and ligand, obtained from inhibition or displacement.

For data set [1], the target named is T1, Polyunsaturated fatty acid lipoxygenase ALOX15 (Oryctolagus cuniculus, UniProt P12530).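 Further: inhibition of 15-lipoxygenase enzyme activity measured with linoleic acid as the substrate; in other assays of this panel Not Active means under 50% inhibition at 10 µM.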
T1 sequence (P12530 whole entry): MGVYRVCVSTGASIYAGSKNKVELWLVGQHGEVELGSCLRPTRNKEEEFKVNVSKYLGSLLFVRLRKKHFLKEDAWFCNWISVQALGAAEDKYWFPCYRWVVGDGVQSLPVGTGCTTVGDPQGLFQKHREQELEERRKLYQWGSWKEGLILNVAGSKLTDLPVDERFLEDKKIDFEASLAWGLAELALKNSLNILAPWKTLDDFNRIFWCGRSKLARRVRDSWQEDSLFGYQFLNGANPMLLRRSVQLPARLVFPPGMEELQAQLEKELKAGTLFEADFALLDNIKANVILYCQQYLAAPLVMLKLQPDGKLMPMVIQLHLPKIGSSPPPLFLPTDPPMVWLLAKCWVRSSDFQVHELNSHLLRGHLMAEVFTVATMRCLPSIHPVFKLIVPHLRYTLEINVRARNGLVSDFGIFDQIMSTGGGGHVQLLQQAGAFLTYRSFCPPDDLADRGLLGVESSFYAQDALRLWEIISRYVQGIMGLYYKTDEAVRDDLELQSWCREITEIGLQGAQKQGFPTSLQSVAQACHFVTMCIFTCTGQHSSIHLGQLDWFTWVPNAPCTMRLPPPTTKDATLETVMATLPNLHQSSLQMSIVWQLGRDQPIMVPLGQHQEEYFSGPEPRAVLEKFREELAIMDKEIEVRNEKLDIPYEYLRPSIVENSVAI
The data set is described as follows: biochemical. Type of data set: tissue-based, Reticulocytes. The note with it: reticulocytes.

Data set [2] addresses T2, Alpha-2A adrenergic receptor (Homo sapiens, UniProt P08913).
T2 sequence (P08913 whole entry): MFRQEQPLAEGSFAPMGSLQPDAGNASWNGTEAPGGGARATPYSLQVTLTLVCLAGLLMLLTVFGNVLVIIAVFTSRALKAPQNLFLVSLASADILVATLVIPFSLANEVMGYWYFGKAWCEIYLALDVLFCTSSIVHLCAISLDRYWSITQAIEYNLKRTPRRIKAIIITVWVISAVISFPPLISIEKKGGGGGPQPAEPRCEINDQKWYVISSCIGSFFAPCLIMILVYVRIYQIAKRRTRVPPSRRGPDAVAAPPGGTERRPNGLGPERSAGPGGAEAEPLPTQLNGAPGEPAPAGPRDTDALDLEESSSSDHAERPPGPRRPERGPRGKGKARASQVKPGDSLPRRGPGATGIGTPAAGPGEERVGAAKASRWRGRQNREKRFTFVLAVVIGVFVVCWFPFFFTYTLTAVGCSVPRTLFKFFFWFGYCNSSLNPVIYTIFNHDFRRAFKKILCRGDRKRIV
Type of data set: cell membranes, Sf9, Membrane. The note with it: sf9.

For another data set, the target named is T3, Calcitonin receptor (Homo sapiens, UniProt P30988). Further: in other assays of this panel Not Active means under 50% inhibition at 10 µM.
T3 sequence (P30988 whole entry): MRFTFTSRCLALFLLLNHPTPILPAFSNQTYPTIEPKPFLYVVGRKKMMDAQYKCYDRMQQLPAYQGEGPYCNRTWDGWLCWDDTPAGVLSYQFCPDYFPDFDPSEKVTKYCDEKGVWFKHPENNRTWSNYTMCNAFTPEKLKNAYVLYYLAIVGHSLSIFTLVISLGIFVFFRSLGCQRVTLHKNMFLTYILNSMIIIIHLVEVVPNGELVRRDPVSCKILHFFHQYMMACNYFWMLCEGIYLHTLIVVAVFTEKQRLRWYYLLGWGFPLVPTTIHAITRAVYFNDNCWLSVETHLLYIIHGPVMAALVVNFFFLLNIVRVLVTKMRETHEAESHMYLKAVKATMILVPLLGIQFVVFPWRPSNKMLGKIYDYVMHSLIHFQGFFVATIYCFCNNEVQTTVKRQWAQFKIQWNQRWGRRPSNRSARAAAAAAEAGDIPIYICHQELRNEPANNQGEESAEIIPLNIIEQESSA
Type of data set: cell membranes, Membrane. The note with it: t47d.

Data set [3] addresses T4, 5-hydroxytryptamine receptor 2C (Homo sapiens, UniProt P28335).
T4 sequence (P28335 whole entry): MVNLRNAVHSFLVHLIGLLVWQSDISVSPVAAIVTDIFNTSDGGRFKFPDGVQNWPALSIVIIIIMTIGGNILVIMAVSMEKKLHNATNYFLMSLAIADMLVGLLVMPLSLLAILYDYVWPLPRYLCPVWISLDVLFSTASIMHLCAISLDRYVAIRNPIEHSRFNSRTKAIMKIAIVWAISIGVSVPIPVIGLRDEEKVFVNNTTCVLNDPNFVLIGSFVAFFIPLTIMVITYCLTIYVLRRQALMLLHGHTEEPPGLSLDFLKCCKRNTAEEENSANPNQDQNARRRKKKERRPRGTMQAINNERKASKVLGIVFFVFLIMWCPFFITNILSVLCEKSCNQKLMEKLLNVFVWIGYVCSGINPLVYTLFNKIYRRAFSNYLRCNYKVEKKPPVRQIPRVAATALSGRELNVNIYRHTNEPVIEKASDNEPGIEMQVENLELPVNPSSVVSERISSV
The data set is described as follows: DRUGMATRIX: Serotonin (5-Hydroxytryptamine) 5-HT2C radioligand binding (ligand: [3H] Mesulergine). The settings on record: Not Active = under 50% inhibition at 10 µM. Type of data set: cell membranes, CHO-K1, Membrane.

A further data set addresses Cytochrome P450 2C19 (Homo sapiens, UniProt P33261). The settings on record: bti-tn-5b1-4.
Data set [4] concerns the target Mitogen-activated protein kinase 1 (Homo sapiens, UniProt P28482). The experiment in a line: DRUGMATRIX: Protein Serine/Threonine Kinase, ERK2 enzyme inhibition (substrate: Myelin Basic Protein). Details: species or system Escherichia coli. The settings on record: Not Active = under 50% inhibition at 10 µM.

Chain of Cytochrome P450 2C19 (P33261 whole entry): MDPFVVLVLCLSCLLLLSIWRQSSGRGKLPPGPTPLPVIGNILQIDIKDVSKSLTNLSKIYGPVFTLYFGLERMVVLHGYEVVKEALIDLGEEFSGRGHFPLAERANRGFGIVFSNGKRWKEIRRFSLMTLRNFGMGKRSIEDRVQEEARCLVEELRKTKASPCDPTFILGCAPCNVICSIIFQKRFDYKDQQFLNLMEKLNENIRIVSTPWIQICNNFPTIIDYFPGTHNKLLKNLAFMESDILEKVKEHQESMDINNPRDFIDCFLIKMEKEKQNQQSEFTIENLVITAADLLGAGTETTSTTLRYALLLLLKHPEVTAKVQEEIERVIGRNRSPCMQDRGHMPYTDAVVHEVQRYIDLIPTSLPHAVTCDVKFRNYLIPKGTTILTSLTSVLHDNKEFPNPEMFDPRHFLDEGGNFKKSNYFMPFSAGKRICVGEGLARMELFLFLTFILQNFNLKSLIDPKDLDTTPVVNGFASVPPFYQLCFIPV
Chain of Mitogen-activated protein kinase 1 (P28482 whole entry): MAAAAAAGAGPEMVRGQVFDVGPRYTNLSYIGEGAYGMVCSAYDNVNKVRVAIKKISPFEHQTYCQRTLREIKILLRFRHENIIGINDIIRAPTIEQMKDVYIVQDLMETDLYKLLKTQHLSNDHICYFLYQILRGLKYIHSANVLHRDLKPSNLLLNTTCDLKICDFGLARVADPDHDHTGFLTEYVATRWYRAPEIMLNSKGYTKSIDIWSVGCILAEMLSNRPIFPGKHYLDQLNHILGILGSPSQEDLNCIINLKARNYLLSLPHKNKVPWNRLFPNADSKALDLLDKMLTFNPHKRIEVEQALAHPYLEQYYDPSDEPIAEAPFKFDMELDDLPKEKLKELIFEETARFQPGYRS

Regarding `CCCN(CCC)C(=O)C(CCC(=O)O)NC(=O)c1ccccc1` (stereo not given) [PROGLUMIDE], the IC50 entry (in data set [1]; in data set [2]; at Calcitonin receptor; in data set [3] (cho-k1); against Cytochrome P450 2C19; in data set [4]) was “Not Active” in each case. Moreover, the Ki result at Cytochrome P450 2C19 is on record as “Not Active”.
In the case of `NC(=O)c1cnccn1` [PYRAZINAMIDE], the IC50 result (in data set [1]; in data set [2]; at Calcitonin receptor; in data set [3] (cho-k1); at Cytochrome P450 2C19; in data set [4]) was “Not Active” throughout. In addition, the Ki result at Cytochrome P450 2C19 is given as “Not Active”.
As to `OC(CCN1CCCCC1)(c1ccccc1)C1CCCCC1` (stereo not given) [TRIHEXYPHENIDYL], the IC50 entry (in data set [1]; in data set [2]; at Calcitonin receptor; in data set [3] (cho-k1); at Cytochrome P450 2C19; in data set [4]) was “Not Active” in each case. In addition, the Ki result on Cytochrome P450 2C19 is listed as “Not Active”.
`Cc1cc2cc3c(C)cc(=O)oc3c(C)c2o1` [TRIOXSALEN]: the IC50 entry is “Not Active” in data set [1]; “Not Active” in data set [2]; “Not Active” on Calcitonin receptor; 2360 nM in data set [3] (read-out: IC50); “Not Active” at Cytochrome P450 2C19; “Not Active” in data set [4]. Further, the Ki in data set [3] (read-out: Ki) was 1230 nM; at Cytochrome P450 2C19 it was “Not Active”.
For `CCCC(CCC)C(=O)O` [VALPROIC ACID], the IC50 result (in data set [1]; in data set [2]; at Calcitonin receptor; in data set [3] (cho-k1); against Cytochrome P450 2C19; in data set [4]) was “Not Active” each time. Besides, the Ki entry on Cytochrome P450 2C19 is on record as “Not Active”.
For the compound `CCC1=C[C@@H]2CN(C1)Cc1c([nH]c3ccccc13)[C@@](C(=O)OC)(c1cc3c(cc1OC)N(C)[C@H]1[C@@](O)(C(=O)OC)[C@H](OC(C)=O)[C@]4(CC)C=CCN5CC[C@]31[C@@H]54)C2` [VINORELBINE], the half-maximal inhibitory concentration (IC50) entry (in data set [1]; in data set [2]; at Calcitonin receptor; in data set [3] (cho-k1); against Cytochrome P450 2C19; in data set [4]) was “Not Active” throughout. Besides, on Cytochrome P450 2C19, the Ki entry is recorded as “Not Active”.
CADMIUM DICHLORIDE: the IC50 entry in data set [1] is “Not Active”; in data set [2] (read-out: IC50), 6920 nM; on Calcitonin receptor, “Not Active”; in data set [3] (cho-k1), “Not Active”; against Cytochrome P450 2C19, “Not Active”; in data set [4] it was “Not Active”. The inhibitory constant (Ki) result in data set [1] was “Not Active”; in data set [2] (read-out: Ki) it was 2590 nM; on Calcitonin receptor, “Not Active”; in data set [3] (cho-k1) it was “Not Active”; at Cytochrome P450 2C19, “Not Active”; in data set [4] it was “Not Active”.
